Results taken from BindingDB's records for doi:10.1021/jm020572p (University of North Carolina at Chapel Hill, 2003).

Tests used:
[1] = molecular target: T1, Muscarinic acetylcholine receptor M5 (Homo sapiens, UniProt P08912); experiment: Binding affinity of compound was determined towards human Muscarinic acetylcholine receptor M5 using [3H]QNB radioligand
T1 sequence (P08912 whole entry): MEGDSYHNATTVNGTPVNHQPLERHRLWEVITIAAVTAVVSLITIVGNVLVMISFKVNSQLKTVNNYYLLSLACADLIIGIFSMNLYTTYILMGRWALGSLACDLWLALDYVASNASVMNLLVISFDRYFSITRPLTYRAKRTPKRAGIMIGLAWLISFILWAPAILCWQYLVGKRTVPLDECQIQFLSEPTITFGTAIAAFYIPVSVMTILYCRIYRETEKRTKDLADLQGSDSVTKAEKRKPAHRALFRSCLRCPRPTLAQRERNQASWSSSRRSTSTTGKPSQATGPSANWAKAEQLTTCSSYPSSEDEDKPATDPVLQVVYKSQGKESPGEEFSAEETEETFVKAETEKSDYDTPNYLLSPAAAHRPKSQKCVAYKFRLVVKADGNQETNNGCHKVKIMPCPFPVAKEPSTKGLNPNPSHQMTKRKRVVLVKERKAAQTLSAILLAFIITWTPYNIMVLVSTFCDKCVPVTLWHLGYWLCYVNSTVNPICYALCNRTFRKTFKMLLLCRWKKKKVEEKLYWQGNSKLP

[2] = molecular target: T2, Muscarinic acetylcholine receptor M2 (Homo sapiens, UniProt P08172); experiment: Binding affinity of compound was determined towards human Muscarinic acetylcholine receptor M2 using [3H]QNB radioligand
T2 sequence (P08172 whole entry): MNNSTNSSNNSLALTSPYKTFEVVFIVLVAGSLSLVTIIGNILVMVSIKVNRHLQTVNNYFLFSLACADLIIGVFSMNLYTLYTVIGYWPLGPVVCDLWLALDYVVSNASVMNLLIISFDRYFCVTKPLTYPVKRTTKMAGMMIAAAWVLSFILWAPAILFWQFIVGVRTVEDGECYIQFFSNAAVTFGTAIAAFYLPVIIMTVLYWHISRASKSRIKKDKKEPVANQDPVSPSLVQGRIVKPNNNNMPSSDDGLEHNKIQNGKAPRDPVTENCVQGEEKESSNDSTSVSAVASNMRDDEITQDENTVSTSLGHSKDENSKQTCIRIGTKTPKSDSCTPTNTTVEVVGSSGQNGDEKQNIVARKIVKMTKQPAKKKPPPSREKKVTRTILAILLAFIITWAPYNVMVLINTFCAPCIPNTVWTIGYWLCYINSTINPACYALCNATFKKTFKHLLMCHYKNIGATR

CCOC(=O)C1CN2CC(CCC2COCc2ccccc2)C1=O (stereo not drawn) [exo-8-Benzyloxymethyl-4-hydroxy-1-aza-bicyclo[3.3.1]non-3-ene-3-carboxylic acid ethyl ester]
Ki [1]: 560 nM
Ki [2]: 80 nM
